Numbered stars: 1 amine (or outer) side, 2 acyl side, 3 side chain; on linkers, the order of the positions; unused ones are H or OH. Bridge positions count the residues as written; N and C are the ends. Square brackets hold non-standard residues; d marks the D form. Peptide text beside a SMILES is read from it. I, II: the chains in the order shown. X3 = CN(CCCNC(=O)CCNC(=O)CCSCC(=O)[*:1])CCCNC(=O)CCNC(=O)CCSCC(=O)[*:2]; Phe(4-guanidino) = N=C(N)Nc1ccc(C[C@H](N)C(=O)O)cc1; X1 = O=C(C(=O)[*:2])[C@H](Cc1ccc(O)cc1)N[*:1]; NHCH2CH2N(Me)CH2CO = CN(CCN[*:1])CC(=O)[*:2]; NMeL = CN[C@@H](CC(C)C)C(=O)O; Pen = CC(C)(S)[C@H](N)C(=O)O; Suc = O=C(CCC(=O)[*:2])[*:1]; Sar = CNCC(=O)O

For one experiment, the target named is T1, IgG receptor FcRn large subunit p51 (Homo sapiens, UniProt P55899). Description: Inhibition of IgG binding to soluble human FcRn after 2 hrs by competition ELISA. On the technique in general: In an ELISA, binding on a coated surface is turned into a signal by an enzyme label.
T1 sequence (P55899 whole entry): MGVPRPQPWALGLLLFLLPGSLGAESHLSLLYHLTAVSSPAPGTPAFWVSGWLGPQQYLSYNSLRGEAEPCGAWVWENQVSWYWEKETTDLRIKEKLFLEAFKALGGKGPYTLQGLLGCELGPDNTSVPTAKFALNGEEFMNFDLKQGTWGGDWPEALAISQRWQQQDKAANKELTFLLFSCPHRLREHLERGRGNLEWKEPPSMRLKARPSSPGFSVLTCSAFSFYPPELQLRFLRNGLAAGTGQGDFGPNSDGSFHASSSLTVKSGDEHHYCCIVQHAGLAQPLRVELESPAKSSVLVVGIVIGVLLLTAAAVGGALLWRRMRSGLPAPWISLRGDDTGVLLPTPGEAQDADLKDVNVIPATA
For the molecule `CC(C)C[C@H]1C(=O)N[C@@H](Cc2ccc(O)cc2)C(=O)C(=O)N2CCC[C@H]2C(=O)N[C@H](C(N)=O)CSSC(C)(C)[C@H](NC(=O)[C@H](Cc2ccccc2)NC(=O)[C@H](CCCNC(=N)N)NC(=O)CC(C)(C)CC(=O)N[C@@H](CCCNC(=N)N)C(=O)N[C@@H](Cc2ccccc2)C(=O)N[C@@H]2C(=O)N[C@@H]([C@@H](C)O)C(=O)NCC(=O)N[C@@H](Cc3cnc[nH]3)C(=O)N[C@@H](Cc3ccccc3)C(=O)NCC(=O)N(C)CC(=O)N(C)[C@@H](CC(C)C)C(=O)N[C@@H](Cc3ccc(O)cc3)C(=O)C(=O)N3CCC[C@H]3C(=O)N[C@H](C(N)=O)CSSC2(C)C)C(=O)N[C@@H]([C@@H](C)O)C(=O)NCC(=O)N[C@@H](Cc2cnc[nH]2)C(=O)N[C@@H](Cc2ccccc2)C(=O)NCC(=O)N(C)CC(=O)N1C`, the IC50 (as a rule, the concentration at which inhibition is half-maximal) came to 5 nM. This lies in the single-digit nanomolar range.
As to `CC(C)C[C@@H]1NC(=O)CNC(=O)CNC(=O)[C@H](Cc2ccccc2)NC(=O)[C@H](Cc2cnc[nH]2)NC(=O)CNC(=O)[C@H]([C@@H](C)O)NC(=O)[C@@H](NC(=O)[C@H](Cc2ccccc2)NC(=O)[C@H](CCCNC(=N)N)NC(=O)CCC(=O)NCCN(C)CC(=O)N[C@@H](CCCNC(=N)N)C(=O)N[C@@H](Cc2ccccc2)C(=O)N[C@H]2CSSC[C@@H](C(N)=O)NC(=O)[C@@H]3CCCN3C(=O)C(=O)[C@H](Cc3ccc(O)cc3)NC(=O)[C@H](CC(C)C)NC(=O)CNC(=O)CNC(=O)[C@H](Cc3ccccc3)NC(=O)[C@H](Cc3cnc[nH]3)NC(=O)CNC(=O)[C@H]([C@@H](C)O)NC2=O)CSSC[C@@H](C(N)=O)NC(=O)[C@@H]2CCCN2C(=O)C(=O)[C@H](Cc2ccc(O)cc2)NC1=O`, the half-maximal inhibitory concentration (IC50) is 3000 nM.
On the same count and under the same terms, with `CC(C)C[C@H]1C(=O)N[C@@H](Cc2ccc(O)cc2)C(=O)C(=O)N2CCC[C@H]2C(=O)N[C@H](C(N)=O)CSSC(C)(C)[C@H](NC(=O)[C@H](Cc2ccccc2)NC(=O)[C@H](CCCNC(=N)N)NC(=O)CCC(=O)NCCN(C)CC(=O)N[C@@H](CCCNC(=N)N)C(=O)N[C@@H](Cc2ccccc2)C(=O)N[C@@H]2C(=O)N[C@@H]([C@@H](C)O)C(=O)NCC(=O)N[C@@H](Cc3cnc[nH]3)C(=O)N[C@@H](Cc3ccccc3)C(=O)N[C@H]3CCCN(CC(=O)N(C)[C@@H](CC(C)C)C(=O)N[C@@H](Cc4ccc(O)cc4)C(=O)C(=O)N4CCC[C@H]4C(=O)N[C@H](C(N)=O)CSSC2(C)C)C3=O)C(=O)N[C@@H]([C@@H](C)O)C(=O)NCC(=O)N[C@@H](Cc2cnc[nH]2)C(=O)N[C@@H](Cc2ccccc2)C(=O)N[C@H]2CCCN(CC(=O)N1C)C2=O` the figure was 3.9 nM; with `CC(C)C[C@H]1C(=O)N[C@@H](Cc2ccc(O)cc2)C(=O)C(=O)N2CCC[C@H]2C(=O)N[C@H](C(=O)N[C@@H](CC(N)=O)C(=O)NCC(=O)N2CCC[C@H]2C(N)=O)CCCCNC(=O)C[C@H](NC(=O)[C@H](Cc2ccccc2)NC(=O)CSCCC(=O)NCCC(=O)NCCCN(C)CCCNC(=O)CCNC(=O)CCSCC(=O)N[C@@H](CCC(N)=O)C(=O)N[C@@H](CCCNC(=N)N)C(=O)N[C@@H](Cc2ccccc2)C(=O)N[C@H]2CC(=O)NCCCC[C@@H](C(=O)N[C@@H](CC(N)=O)C(=O)NCC(=O)N3CCC[C@H]3C(N)=O)NC(=O)[C@@H]3CCCN3C(=O)C(=O)[C@H](Cc3ccc(O)cc3)NC(=O)[C@H](CC(C)C)N(C)C(=O)CN(C)C(=O)CNC(=O)[C@H](Cc3ccccc3)NC(=O)[C@H](Cc3cnc[nH]3)NC(=O)CNC(=O)[C@H]([C@@H](C)O)NC2=O)C(=O)N[C@@H]([C@@H](C)O)C(=O)NCC(=O)N[C@@H](Cc2cnc[nH]2)C(=O)N[C@@H](Cc2ccccc2)C(=O)NCC(=O)N(C)CC(=O)N1C` (I: QRFDTGHFG[Sar][NMeL][X1]PKNGP-NH2 / II: FDTGHFG[Sar][NMeL][X1]PKNGP-NH2; lactam I:4-I:14, II:2-II:12; linker I:N-II:N via X3), 2400 nM; with `CC(C)C[C@H]1C(=O)N[C@@H](Cc2ccc(O)cc2)C(=O)C(=O)N2CCC[C@H]2C(=O)N[C@H](C(N)=O)CSSC(C)(C)[C@H](NC(=O)[C@H](Cc2ccccc2)NC(=O)[C@H](CCCNC(=N)N)NC(=O)CCOCCOCCOCCOCCOCCC(=O)N[C@@H](CCCNC(=N)N)C(=O)N[C@@H](Cc2ccccc2)C(=O)N[C@@H]2C(=O)N[C@@H]([C@@H](C)O)C(=O)NCC(=O)N[C@@H](Cc3cnc[nH]3)C(=O)N[C@@H](Cc3ccccc3)C(=O)NCC(=O)N(C)CC(=O)N(C)[C@@H](CC(C)C)C(=O)N[C@@H](Cc3ccc(O)cc3)C(=O)C(=O)N3CCC[C@H]3C(=O)N[C@H](C(N)=O)CSSC2(C)C)C(=O)N[C@@H]([C@@H](C)O)C(=O)NCC(=O)N[C@@H](Cc2cnc[nH]2)C(=O)N[C@@H](Cc2ccccc2)C(=O)NCC(=O)N(C)CC(=O)N1C`, 4.8 nM.
The same measure, in the same setting: the result for `CC(C)C[C@H]1C(=O)N[C@@H](Cc2ccc(O)cc2)C(=O)C(=O)N2CCC[C@H]2C(=O)N[C@H](C(N)=O)CSSC(C)(C)[C@H](NC(=O)[C@H](Cc2ccccc2)NC(=O)[C@H](CCCNC(=N)N)NC(=O)CN(C)CCNC(=O)CNC(=O)[C@@H]2CSSC(C)(C)[C@H](NC(=O)[C@H](Cc3ccccc3)NC(=O)[C@@H](N)CCCNC(=N)N)C(=O)N[C@@H]([C@@H](C)O)C(=O)NCC(=O)N[C@@H](Cc3cnc[nH]3)C(=O)N[C@@H](Cc3ccccc3)C(=O)NCC(=O)N(C)CC(=O)N(C)[C@@H](CC(C)C)C(=O)N[C@@H](Cc3ccc(O)cc3)C(=O)C(=O)N3CCC[C@H]3C(=O)N2)C(=O)N[C@@H]([C@@H](C)O)C(=O)NCC(=O)N[C@@H](Cc2cnc[nH]2)C(=O)N[C@@H](Cc2ccccc2)C(=O)NCC(=O)N(C)CC(=O)N1C` (H-RF[Pen]TGHFG[Sar][NMeL][X1]PCG[NHCH2CH2N(Me)CH2CO]RF[Pen]TGHFG[Sar][NMeL][X1]PC-NH2; disulfide 3-13, 18-28) reads 3.9 nM; that for `CC(C)C[C@H]1C(=O)N[C@@H](Cc2ccc(O)cc2)C(=O)C(=O)N2CCC[C@H]2C(=O)N[C@H](C(N)=O)CSSC(C)(C)[C@H](NC(=O)[C@H](Cc2ccccc2)NC(=O)[C@H](CCCNC(=N)N)NC(=O)CN(C)CC(=O)N[C@@H](CCCNC(=N)N)C(=O)N[C@@H](Cc2ccccc2)C(=O)N[C@@H]2C(=O)N[C@@H]([C@@H](C)O)C(=O)NCC(=O)N[C@@H](Cc3cnc[nH]3)C(=O)N[C@@H](Cc3ccccc3)C(=O)NCC(=O)N(C)CC(=O)N(C)[C@@H](CC(C)C)C(=O)N[C@@H](Cc3ccc(O)cc3)C(=O)C(=O)N3CCC[C@H]3C(=O)N[C@H](C(N)=O)CSSC2(C)C)C(=O)N[C@@H]([C@@H](C)O)C(=O)NCC(=O)N[C@@H](Cc2cnc[nH]2)C(=O)N[C@@H](Cc2ccccc2)C(=O)NCC(=O)N(C)CC(=O)N1C`, 4.7 nM; that for `CC(C)C[C@H]1C(=O)N[C@@H](Cc2ccc(O)cc2)C(=O)C(=O)N2CCC[C@H]2C(=O)N[C@H](C(N)=O)CSSC(C)(C)[C@H](NC(=O)[C@H](Cc2ccccc2)NC(=O)[C@H](CCCNC(=N)N)NC(=O)CCNC(=O)CCNC(=O)CCNC(=O)CN(C)CCNC(=O)CCC(=O)N[C@@H](CCCNC(=N)N)C(=O)N[C@@H](Cc2ccccc2)C(=O)N[C@@H]2C(=O)N[C@@H]([C@@H](C)O)C(=O)NCC(=O)N[C@@H](Cc3cnc[nH]3)C(=O)N[C@@H](Cc3ccccc3)C(=O)NCC(=O)N(C)CC(=O)N(C)[C@@H](CC(C)C)C(=O)N[C@@H](Cc3ccc(O)cc3)C(=O)C(=O)N3CCC[C@H]3C(=O)N[C@H](C(N)=O)CSSC2(C)C)C(=O)N[C@@H]([C@@H](C)O)C(=O)NCC(=O)N[C@@H](Cc2cnc[nH]2)C(=O)N[C@@H](Cc2ccccc2)C(=O)NCC(=O)N(C)CC(=O)N1C`, 2.4 nM.
In turn, `CC(C)C[C@H]1C(=O)N[C@@H](Cc2ccc(O)cc2)C(=O)C(=O)N2CCC[C@H]2C(=O)N[C@H](C(N)=O)CSSC(C)(C)[C@H](NC(=O)[C@H](Cc2ccccc2)NC(=O)[C@H](CCCNC(=N)N)NC(=O)CCC(=O)N[C@@H](CCCNC(=N)N)C(=O)N[C@@H](Cc2ccccc2)C(=O)N[C@@H]2C(=O)N[C@@H]([C@@H](C)O)C(=O)NCC(=O)N[C@@H](Cc3ccc(N=C(N)N)cc3)C(=O)NCC(=O)N(C)CC(=O)N(C)[C@@H](CC(C)C)C(=O)N[C@@H](Cc3ccc(O)cc3)C(=O)C(=O)N3CCC[C@H]3C(=O)N[C@H](C(N)=O)CSSC2(C)C)C(=O)N[C@@H]([C@@H](C)O)C(=O)NCC(=O)N[C@@H](Cc2ccc(N=C(N)N)cc2)C(=O)NCC(=O)N(C)CC(=O)N1C` (I: RF[Pen]TG[Phe(4-guanidino)]G[Sar][NMeL][X1]PC-NH2 / II: RF[Pen]TG[Phe(4-guanidino)]G[Sar][NMeL][X1]PC-NH2; disulfide I:3-I:12, II:3-II:12; linker I:N-II:N via Suc) gave an IC50 of 20 nM.
Regarding `CC(C)C[C@H]1C(=O)N[C@@H](Cc2ccc(O)cc2)C(=O)C(=O)N2CCC[C@H]2C(=O)N[C@H](C(N)=O)CSSC(C)(C)[C@H](NC(=O)[C@H](Cc2ccccc2)NC(=O)[C@H](CCCNC(=N)N)NC(=O)CCC(=O)N[C@@H](CCCNC(=N)N)C(=O)N[C@@H](Cc2ccccc2)C(=O)N[C@@H]2C(=O)N[C@@H]([C@@H](C)O)C(=O)NCC(=O)N[C@@H](Cc3cnc[nH]3)C(=O)N[C@@H](Cc3ccccc3)C(=O)NCC(=O)N(C)CC(=O)N(C)[C@@H](CC(C)C)C(=O)N[C@@H](Cc3ccc(O)cc3)C(=O)C(=O)N3CCC[C@H]3C(=O)N[C@H](C(N)=O)CSSC2(C)C)C(=O)N[C@@H]([C@@H](C)O)C(=O)NCC(=O)N[C@@H](Cc2cnc[nH]2)C(=O)N[C@@H](Cc2ccccc2)C(=O)NCC(=O)N(C)CC(=O)N1C`, the concentration for half-maximal inhibition (IC50) was 2.4 nM. This IC50 lies about 8.3-fold lower than the previous one.

Another experiment has as its target T1, IgG receptor FcRn large subunit p51. In words: Ratio of RF-Pen-TGHFG-Sar-NMeLeu-YPC IC50 to compound IC50 for soluble human FcRn.
With `CC(C)C[C@H]1C(=O)N[C@@H](Cc2ccc(O)cc2)C(=O)C(=O)N2CCC[C@H]2C(=O)N[C@H](C(N)=O)CSSC(C)(C)[C@H](NC(=O)[C@H](Cc2ccccc2)NC(=O)[C@H](CCCNC(=N)N)NC(=O)CN(C)CCNC(=O)CNC(=O)[C@@H]2CSSC(C)(C)[C@H](NC(=O)[C@H](Cc3ccccc3)NC(=O)[C@@H](N)CCCNC(=N)N)C(=O)N[C@@H]([C@@H](C)O)C(=O)NCC(=O)N[C@@H](Cc3c[nH]cn3)C(=O)N[C@@H](Cc3ccccc3)C(=O)NCC(=O)N(C)CC(=O)N(C)[C@@H](CC(C)C)C(=O)N[C@@H](Cc3ccc(O)cc3)C(=O)C(=O)N3CCC[C@H]3C(=O)N2)C(=O)N[C@@H]([C@@H](C)O)C(=O)NCC(=O)N[C@@H](Cc2c[nH]cn2)C(=O)N[C@@H](Cc2ccccc2)C(=O)NCC(=O)N(C)CC(=O)N1C` (H-RF[Pen]TGHFG[Sar][NMeL][X1]PCG[NHCH2CH2N(Me)CH2CO]RF[Pen]TGHFG[Sar][NMeL][X1]PC-NH2; disulfide 3-13, 18-28), the Ratio IC50 turned out to be 130.
